Measurements reported in the supplement of paper PMC10627819.

Experiments:
S. aureus DSM 20231 [1] = experiment: Bliss interaction score (quartile over a dose matrix) (fitness difference); higher = more antagonism (negative = synergy)
Summary of the method: (§1)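 The Bliss score takes observed fitness and subtracts the expected fitness, calculated as a product of single-drug fitness values. Those single-drug values were inferred from the combination data. Fitness is OD595 at entry into stationary phase divided by the plate's robust no-drug mean, capped at 1, and the score is summarised by quartiles across technical, biological and donor/recipient replicates.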

B. subtilis 168 = experiment: as above
Summary of the method: as §1

S. pneumoniae D39V [2] = experiment: as above
Summary of the method: as §1

S. aureus Newman [3] = experiment: as above
Summary of the method: as §1

S. aureus DSM 20231 [4] = experiment: fitness (endpoint OD595 vs no drug) (fraction); higher = more growth
Summary of the method: (§2)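 Bacterial growth was followed in 384-well plates seeded at OD595 0.01, with 30 µl per well, or 55 µl for S. pneumoniae, in TSB, LB Lennox or CY at 37 °C. OD595 was read every 30 min for 14 h, and each reading had the first reading subtracted as background. Fitness is the background-corrected optical density at entry into stationary phase divided by the robust mean of the no-drug control wells. This ratio is capped at 1.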

S. pneumoniae D39V [5] = experiment: as above
Summary of the method: as §2

S. aureus Newman [6] = experiment: as above
Summary of the method: as §2
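For Bliss interaction score (quartile over a dose matrix) in this document: first quartile when negative (synergy) and third quartile when positive (antagonism).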

CO/N=C(\C(=O)N[C@@H]1C(=O)N2C(C(=O)[O-])=C(C[N+]3(C)CCCC3)CS[C@H]12)c1csc(N)n1 [Cefepime] + C[C@@H]1O[C@@H]1P(=O)(O)O [Fosfomycin]
Settings	Bliss interaction score
B. subtilis 168	-0.0571
S. aureus DSM 20231 [1]	-0.0913
S. aureus Newman [3]	0.16
S. pneumoniae D39V [2]	-0.0837

Settings	fitness
S. aureus DSM 20231 [4], first compound 0.125 µg/mL, partner 0.781 µg/mL	0.649
S. aureus DSM 20231 [4], first compound 0.125 µg/mL, partner 1.562 µg/mL	0.503
S. aureus DSM 20231 [4], first compound 0.125 µg/mL, partner 3.124 µg/mL	0.456
S. aureus DSM 20231 [4], first compound 0.25 µg/mL, partner 0.781 µg/mL	0.633
S. aureus DSM 20231 [4], first compound 0.25 µg/mL, partner 1.562 µg/mL	0.512
S. aureus DSM 20231 [4], first compound 0.25 µg/mL, partner 3.124 µg/mL	0.488
S. aureus DSM 20231 [4], first compound 0.5 µg/mL, partner 0.781 µg/mL	0.67
S. aureus DSM 20231 [4], first compound 0.5 µg/mL, partner 1.562 µg/mL	0.559
S. aureus DSM 20231 [4], first compound 0.5 µg/mL, partner 3.124 µg/mL	0.539
S. aureus Newman [6], first compound 0.125 µg/mL, partner 0.781 µg/mL	0.691
S. aureus Newman [6], first compound 0.125 µg/mL, partner 1.562 µg/mL	0.599
S. aureus Newman [6], first compound 0.125 µg/mL, partner 3.124 µg/mL	0.301
S. aureus Newman [6], first compound 0.25 µg/mL, partner 0.781 µg/mL	0.653
S. aureus Newman [6], first compound 0.25 µg/mL, partner 1.562 µg/mL	0.587
S. aureus Newman [6], first compound 0.25 µg/mL, partner 3.124 µg/mL	0.305
S. aureus Newman [6], first compound 0.5 µg/mL, partner 0.781 µg/mL	0.659
S. aureus Newman [6], first compound 0.5 µg/mL, partner 1.562 µg/mL	0.568
S. aureus Newman [6], first compound 0.5 µg/mL, partner 3.124 µg/mL	0.276
S. pneumoniae D39V [5], first compound 0.007 µg/mL, partner 1.25 µg/mL	0.966
S. pneumoniae D39V [5], first compound 0.007 µg/mL, partner 2.5 µg/mL	0.911
S. pneumoniae D39V [5], first compound 0.007 µg/mL, partner 5 µg/mL	0.677
S. pneumoniae D39V [5], first compound 0.0078 µg/mL, partner 1.25 µg/mL	0.987
S. pneumoniae D39V [5], first compound 0.0078 µg/mL, partner 2.5 µg/mL	0.957
S. pneumoniae D39V [5], first compound 0.0078 µg/mL, partner 5 µg/mL	0.755
S. pneumoniae D39V [5], first compound 0.014 µg/mL, partner 1.25 µg/mL	0.984
S. pneumoniae D39V [5], first compound 0.014 µg/mL, partner 2.5 µg/mL	0.889
S. pneumoniae D39V [5], first compound 0.014 µg/mL, partner 5 µg/mL	0.62
S. pneumoniae D39V [5], first compound 0.0155 µg/mL, partner 1.25 µg/mL	0.962
S. pneumoniae D39V [5], first compound 0.0155 µg/mL, partner 2.5 µg/mL	0.932
S. pneumoniae D39V [5], first compound 0.0155 µg/mL, partner 5 µg/mL	0.633
S. pneumoniae D39V [5], first compound 0.028 µg/mL, partner 1.25 µg/mL	0.844
S. pneumoniae D39V [5], first compound 0.028 µg/mL, partner 2.5 µg/mL	0.707
S. pneumoniae D39V [5], first compound 0.028 µg/mL, partner 5 µg/mL	0.273
S. pneumoniae D39V [5], first compound 0.031 µg/mL, partner 1.25 µg/mL	0.789

CO/N=C(\C(=O)N[C@@H]1C(=O)N2C(C(=O)[O-])=C(C[N+]3(C)CCCC3)CS[C@H]12)c1csc(N)n1 [Cefepime] + C[n+]1ccc(-c2cc[n+](C)cc2)cc1 [Paraquat]
Settings	Bliss interaction score
B. subtilis 168	-0.121
S. aureus DSM 20231 [1]	-0.0615
S. aureus Newman [3]	0.0489
S. pneumoniae D39V [2]	0.0315

Settings	fitness
S. aureus DSM 20231 [4], first compound 0.125 µg/mL, partner 1.25 µg/mL	0.9
S. aureus DSM 20231 [4], first compound 0.125 µg/mL, partner 2.5 µg/mL	0.888
S. aureus DSM 20231 [4], first compound 0.125 µg/mL, partner 5 µg/mL	0.874
S. aureus DSM 20231 [4], first compound 0.25 µg/mL, partner 1.25 µg/mL	0.889
S. aureus DSM 20231 [4], first compound 0.25 µg/mL, partner 2.5 µg/mL	0.876
S. aureus DSM 20231 [4], first compound 0.25 µg/mL, partner 5 µg/mL	0.821
S. aureus DSM 20231 [4], first compound 0.5 µg/mL, partner 2.5 µg/mL	0.853
S. aureus DSM 20231 [4], first compound 0.5 µg/mL, partner 5 µg/mL	0.837
S. aureus Newman [6], first compound 0.125 µg/mL, partner 1.25 µg/mL	0.901
S. aureus Newman [6], first compound 0.125 µg/mL, partner 2.5 µg/mL	0.916
S. aureus Newman [6], first compound 0.125 µg/mL, partner 5 µg/mL	0.898
S. aureus Newman [6], first compound 0.25 µg/mL, partner 1.25 µg/mL	0.851
S. aureus Newman [6], first compound 0.25 µg/mL, partner 2.5 µg/mL	0.854
S. aureus Newman [6], first compound 0.25 µg/mL, partner 5 µg/mL	0.846
S. aureus Newman [6], first compound 0.5 µg/mL, partner 1.25 µg/mL	0.768
S. aureus Newman [6], first compound 0.5 µg/mL, partner 2.5 µg/mL	0.773
S. aureus Newman [6], first compound 0.5 µg/mL, partner 5 µg/mL	0.839
S. pneumoniae D39V [5], first compound 0.007 µg/mL, partner 1.5 µg/mL	0.99
S. pneumoniae D39V [5], first compound 0.007 µg/mL, partner 3 µg/mL	0.996
S. pneumoniae D39V [5], first compound 0.007 µg/mL, partner 6 µg/mL	0.971
S. pneumoniae D39V [5], first compound 0.014 µg/mL, partner 1.5 µg/mL	≥ 1
S. pneumoniae D39V [5], first compound 0.014 µg/mL, partner 3 µg/mL	≥ 1
S. pneumoniae D39V [5], first compound 0.014 µg/mL, partner 6 µg/mL	≥ 1
S. pneumoniae D39V [5], first compound 0.028 µg/mL, partner 1.5 µg/mL	0.934
S. pneumoniae D39V [5], first compound 0.028 µg/mL, partner 3 µg/mL	0.917
S. pneumoniae D39V [5], first compound 0.028 µg/mL, partner 6 µg/mL	0.869

fitness, S. pneumoniae D39V [5], one replicate
Settings	first compound 0.0078 µg/mL	first compound 0.0155 µg/mL	first compound 0.031 µg/mL
partner 1.5 µg/mL	0.994	0.985	0.957
partner 3 µg/mL	≥ 1	≥ 1	0.975
partner 6 µg/mL	≥ 1	≥ 1	≥ 1
